Data taken from PubChem BioAssay (NCI).
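Interpolation was linear, between the two tested concentrations surrounding the appropriate level; five concentrations were tested over 48 hours in 96-well plates. GI50 marks 50% less growth. TGI marks complete inhibition of growth.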

Key:
Assay in all cases: NCI anticancer screen, dose series, 48 h
BT-549 breast = test system: BT-549 breast
LOX IMVI melanoma = test system: LOX IMVI melanoma
NCI-H23 lung = test system: NCI-H23 lung
A549 NSCLC = test system: A549 NSCLC
MDA-MB-231 breast = test system: MDA-MB-231 breast
OVCAR-3 ovarian = test system: OVCAR-3 ovarian
786-0 renal = test system: 786-0 renal
SK-MEL-28 melanoma = test system: SK-MEL-28 melanoma
KM12 colon = test system: KM12 colon
CCRF-CEM leukemia = test system: CCRF-CEM leukemia
HOP-92 NSCLC = test system: HOP-92 NSCLC
UO-31 renal = test system: UO-31 renal
HOP-62 NSCLC = test system: HOP-62 NSCLC
NCI/ADR-RES ovarian = test system: NCI/ADR-RES ovarian
MALME-3M melanoma = test system: MALME-3M melanoma
T-47D breast = test system: T-47D breast
SNB-19 CNS = test system: SNB-19 CNS
EKVX NSCLC = test system: EKVX NSCLC
MOLT-4 leukemia = test system: MOLT-4 leukemia
NCI-H460 lung = test system: NCI-H460 lung
OVCAR-4 ovarian = test system: OVCAR-4 ovarian
SF-268 CNS = test system: SF-268 CNS
HS 578T breast = test system: HS 578T breast
OVCAR-5 ovarian = test system: OVCAR-5 ovarian
HCT-116 colon = test system: HCT-116 colon
SNB-75 CNS = test system: SNB-75 CNS
PC-3 prostate = test system: PC-3 prostate
SN12C renal = test system: SN12C renal
RXF 393 renal = test system: RXF 393 renal
OVCAR-8 ovarian = test system: OVCAR-8 ovarian
SK-MEL-2 melanoma = test system: SK-MEL-2 melanoma
IGROV1 ovarian = test system: IGROV1 ovarian
SK-MEL-5 melanoma = test system: SK-MEL-5 melanoma
U251 CNS = test system: U251 CNS
DU-145 prostate = test system: DU-145 prostate
UACC-62 melanoma = test system: UACC-62 melanoma
SK-OV-3 ovarian = test system: SK-OV-3 ovarian
NCI-H522 lung = test system: NCI-H522 lung
A498 renal = test system: A498 renal
HCC-2998 colon = test system: HCC-2998 colon
NCI-H226 lung = test system: NCI-H226 lung
SF-295 CNS = test system: SF-295 CNS
ACHN renal = test system: ACHN renal
HT29 colon = test system: HT29 colon
TK-10 renal = test system: TK-10 renal
HL-60(TB) leukemia = test system: HL-60(TB) leukemia
UACC-257 melanoma = test system: UACC-257 melanoma
MDA-MB-468 breast = test system: MDA-MB-468 breast
SF-539 CNS = test system: SF-539 CNS
CAKI-1 renal = test system: CAKI-1 renal
SW-620 colon = test system: SW-620 colon
MCF7 breast = test system: MCF7 breast

Q: Which results are given for Cn1cc(-c2cc3nc(-c4cn(C)c5ncccc45)cc(N)n3n2)c2ccccc21?
A: GI50 (BT-549 breast): 10.2 µM; TGI (BT-549 breast): 24.3 µM; GI50 (LOX IMVI melanoma): 2150 nM; TGI (LOX IMVI melanoma): 4.65 µM; GI50 (NCI-H23 lung): 10 µM; TGI (NCI-H23 lung): 41.2 µM; GI50 (A549 NSCLC): 4.6 µM; TGI (A549 NSCLC): > 100 µM; GI50 (MDA-MB-231 breast): 2990 nM; TGI (MDA-MB-231 breast): 9.7 µM; GI50 (OVCAR-3 ovarian): 3.08 µM; TGI (OVCAR-3 ovarian): 11.4 µM; GI50 (786-0 renal): 1680 nM; TGI (786-0 renal): 3.16 µM; GI50 (SK-MEL-28 melanoma): 1710 nM; TGI (SK-MEL-28 melanoma): 3.12 µM; GI50 (KM12 colon): 3.84 µM; TGI (KM12 colon): > 100 µM; GI50 (CCRF-CEM leukemia): 2520 nM; TGI (CCRF-CEM leukemia): 6.49 µM; GI50 (HOP-92 NSCLC): 2930 nM; TGI (HOP-92 NSCLC): 8.33 µM; GI50 (UO-31 renal): 4.77 µM; TGI (UO-31 renal): 40.9 µM; GI50 (HOP-62 NSCLC): 4.5 µM; TGI (HOP-62 NSCLC): 20.7 µM; GI50 (NCI/ADR-RES ovarian): 5.02 µM; TGI (NCI/ADR-RES ovarian): 24.9 µM; GI50 (MALME-3M melanoma): 1860 nM; TGI (MALME-3M melanoma): 3.3 µM; GI50 (T-47D breast): 5.77 µM; TGI (T-47D breast): 74.7 µM; GI50 (SNB-19 CNS): 5.11 µM; TGI (SNB-19 CNS): 26.7 µM; GI50 (EKVX NSCLC): 10.7 µM; TGI (EKVX NSCLC): 51.3 µM; GI50 (MOLT-4 leukemia): 2380 nM; TGI (MOLT-4 leukemia): 8.9 µM; GI50 (NCI-H460 lung): 3.75 µM; TGI (NCI-H460 lung): 14.7 µM; GI50 (OVCAR-4 ovarian): 2600 nM; TGI (OVCAR-4 ovarian): 8.09 µM; GI50 (SF-268 CNS): 17.2 µM; TGI (SF-268 CNS): > 100 µM; GI50 (HS 578T breast): 2480 nM; TGI (HS 578T breast): 8.08 µM; GI50 (OVCAR-5 ovarian): 8.81 µM; TGI (OVCAR-5 ovarian): 98.9 µM; GI50 (HCT-116 colon): 2560 nM; TGI (HCT-116 colon): 6.9 µM; GI50 (SNB-75 CNS): 4.97 µM; TGI (SNB-75 CNS): 24.6 µM; GI50 (PC-3 prostate): 5.52 µM; TGI (PC-3 prostate): 55 µM; GI50 (SN12C renal): 2970 nM; TGI (SN12C renal): 14.2 µM; GI50 (RXF 393 renal): 2010 nM; TGI (RXF 393 renal): 4.01 µM; GI50 (OVCAR-8 ovarian): 5.63 µM; TGI (OVCAR-8 ovarian): > 100 µM; GI50 (SK-MEL-2 melanoma): 2170 nM; TGI (SK-MEL-2 melanoma): 5.5 µM; GI50 (IGROV1 ovarian): 2840 nM; TGI (IGROV1 ovarian): 8.11 µM; GI50 (SK-MEL-5 melanoma): 3.44 µM; TGI (SK-MEL-5 melanoma): 15.7 µM; GI50 (U251 CNS): 3.16 µM; TGI (U251 CNS): 21.4 µM; GI50 (DU-145 prostate): 9.59 µM; TGI (DU-145 prostate): 52.9 µM; GI50 (UACC-62 melanoma): 1730 nM; TGI (UACC-62 melanoma): 3.34 µM; GI50 (SK-OV-3 ovarian): 21 µM; TGI (SK-OV-3 ovarian): 69.3 µM; GI50 (NCI-H522 lung): 2350 nM; TGI (NCI-H522 lung): 5.91 µM; GI50 (A498 renal): 17.6 µM; TGI (A498 renal): 37 µM; GI50 (HCC-2998 colon): 2260 nM; TGI (HCC-2998 colon): 5.44 µM; GI50 (NCI-H226 lung): 2700 nM; TGI (NCI-H226 lung): 7.12 µM; GI50 (SF-295 CNS): 1730 nM; TGI (SF-295 CNS): 3.63 µM; GI50 (ACHN renal): 2600 nM; TGI (ACHN renal): 7.42 µM; GI50 (HT29 colon): 2150 nM; TGI (HT29 colon): 6.22 µM; GI50 (TK-10 renal): 11.6 µM; TGI (TK-10 renal): 51.6 µM; GI50 (HL-60(TB) leukemia): 2330 nM; TGI (HL-60(TB) leukemia): 5.11 µM; GI50 (UACC-257 melanoma): 1830 nM; TGI (UACC-257 melanoma): 3.71 µM; GI50 (MDA-MB-468 breast): 2430 nM; TGI (MDA-MB-468 breast): 7.76 µM; GI50 (SF-539 CNS): 1800 nM; TGI (SF-539 CNS): 3.71 µM; GI50 (CAKI-1 renal): 3.74 µM; TGI (CAKI-1 renal): 19.1 µM; GI50 (SW-620 colon): 4.38 µM; TGI (SW-620 colon): > 100 µM; GI50 (MCF7 breast): 3.38 µM; TGI (MCF7 breast): 24.2 µM

Q: Which GI50 (MDA-MB-468 breast) does the source give for O=C(CCCC(=O)N/N=C/c1cc(Cl)ccc1O)N/N=C\c1cc(Cl)ccc1O here?
A: 2220 nM

Q: And the TGI (MDA-MB-468 breast)?
A: 9.3 µM

Q: What does the source list for O=c1cc(-c2ccccc2)oc2c1ccc1ccccc12?
A: GI50 (MDA-MB-468 breast): 23600 nM; TGI (MDA-MB-468 breast): 95.4 µM

Q: Which results are given for C/C(CC(C)(C)N1CC1)=N\NC(=O)Nc1cccc2ccccc12?
A: GI50 (MDA-MB-468 breast): 1920 nM; TGI (MDA-MB-468 breast): 4.61 µM

Q: Which results are given for COc1ccc(-c2cc(-c3ccc(OC)cc3)nc(NCCCNc3ccnc4cc(Cl)ccc34)n2)cc1?
A: GI50 (MDA-MB-468 breast): 1270 nM; TGI (MDA-MB-468 breast): 2.79 µM

Q: For Fc1ccc(-c2ncn(CCCN3CCOCC3)c2-c2ccncc2)cc1, which GI50 (MDA-MB-468 breast) is on record?
A: > 25000 nM

Q: What about the TGI (MDA-MB-468 breast) of the same compound?
A: > 25 µM

Q: How did the GI50 (MDA-MB-468 breast) turn out when O=C(Nc1n[nH]c2nc(-c3ccc(O)cc3)c(Br)cc12)C1CC1 was run?
A: 3930 nM

Q: What about the TGI (MDA-MB-468 breast) of the same compound?
A: 8.79 µM

Q: With CC(=O)Nc1ccc(OC(C)=O)cc1 as the compound, how does the GI50 (MDA-MB-468 breast) read?
A: < 10 nM

Q: What about the TGI (MDA-MB-468 breast) of the same compound?
A: < 0.101 µM

Q: Which results are given for COc1ccc([C@@H]2[C@@H](O)C(=O)N2c2cc(OC)c(OC)c(OC)c2)cc1Cl?
A: GI50 (MDA-MB-468 breast): < 14.1 nM; TGI (MDA-MB-468 breast): > 35.9 µM

Q: With CC[C@]12C=CCN3CC[C@@]4(c5ccc(OC)cc5N(C)[C@H]4[C@@](O)(C(=O)OC)[C@@H]1OC(=O)CCC(=O)O[C@H]1CC[C@H]4[C@@H]5CC[C@H]6CC(=O)CC[C@]6(C)[C@H]5CC[C@]14C)[C@@H]32 as the compound, how does the GI50 (MDA-MB-468 breast) read?
A: 3130 nM

Q: And the TGI (MDA-MB-468 breast)?
A: > 100 µM

Q: With O=C1c2ccccc2C(=O)c2c1oc1c2c(=O)[nH]c2ccc(Cl)cc21 as the compound, how does the GI50 (MDA-MB-468 breast) read?
A: 249 nM

Q: What about the TGI (MDA-MB-468 breast) of the same compound?
A: 0.868 µM
